How the values were obtained:
Format in all cases: biochemical
Human PI3K gamma = biological target: T1, Human PI3K gamma (Homo sapiens, UniProt P48736); experiment: Human PI3K gamma enzyme assay (HTRF); settings: concentration not given, b1389 states 1.0 μM for PI3K δ and γ; for inhibition at 1 µM: read-out: p110 gamma Percent Inhibition
T1 construct: His (N); host or cells: SF9 insect cells (baculovirus)
Summary of the method: (§1)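 Compounds were mixed with 25 uM ATP, then with 3.5 uM di-C8 PI(4,5)P2 and His-tagged PI3K isoform (β 5.25 nM, δ 0.75 nM, γ 5 nM) at pH 7.00. After 30 min at room temperature, EDTA stopped the reaction and PIP3 was measured by HTRF over 1 h.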

Human PI3K alpha = biological target: T2, Human PI3K alpha (Homo sapiens, UniProt P42336); experiment: Human PI3K alpha enzyme assay (HTRF); settings: concentration not given, b1387 states 1.1 μM for PI3K α and β; for inhibition at 1.1 µM: read-out: p110 alpha Percent Inhibition
T2 construct: His (N); host or cells: SF9 insect cells (baculovirus)

Human PI3K beta = biological target: T3, Human PI3K beta (Homo sapiens, UniProt P42338); experiment: Human PI3K beta enzyme assay (HTRF); settings: concentration not given, b1387 states 1.1 μM for PI3K α and β; for inhibition at 1.1 µM: read-out: p110 beta Percent Inhibition
T3 construct: His (N); host or cells: SF9 insect cells (baculovirus)
Summary of the method: as §1

Human PI3K delta = biological target: T4, Human PI3K delta (Homo sapiens, UniProt O00329); experiment: Human PI3K delta enzyme assay (HTRF); settings: concentration not given, b1389 states 1.0 μM for PI3K δ and γ; for inhibition at 1 µM: read-out: p110 delta Percent Inhibition
T4 construct: His (N); host or cells: SF9 insect cells (baculovirus)
Summary of the method: as §1

T4 sequence (O00329 whole entry): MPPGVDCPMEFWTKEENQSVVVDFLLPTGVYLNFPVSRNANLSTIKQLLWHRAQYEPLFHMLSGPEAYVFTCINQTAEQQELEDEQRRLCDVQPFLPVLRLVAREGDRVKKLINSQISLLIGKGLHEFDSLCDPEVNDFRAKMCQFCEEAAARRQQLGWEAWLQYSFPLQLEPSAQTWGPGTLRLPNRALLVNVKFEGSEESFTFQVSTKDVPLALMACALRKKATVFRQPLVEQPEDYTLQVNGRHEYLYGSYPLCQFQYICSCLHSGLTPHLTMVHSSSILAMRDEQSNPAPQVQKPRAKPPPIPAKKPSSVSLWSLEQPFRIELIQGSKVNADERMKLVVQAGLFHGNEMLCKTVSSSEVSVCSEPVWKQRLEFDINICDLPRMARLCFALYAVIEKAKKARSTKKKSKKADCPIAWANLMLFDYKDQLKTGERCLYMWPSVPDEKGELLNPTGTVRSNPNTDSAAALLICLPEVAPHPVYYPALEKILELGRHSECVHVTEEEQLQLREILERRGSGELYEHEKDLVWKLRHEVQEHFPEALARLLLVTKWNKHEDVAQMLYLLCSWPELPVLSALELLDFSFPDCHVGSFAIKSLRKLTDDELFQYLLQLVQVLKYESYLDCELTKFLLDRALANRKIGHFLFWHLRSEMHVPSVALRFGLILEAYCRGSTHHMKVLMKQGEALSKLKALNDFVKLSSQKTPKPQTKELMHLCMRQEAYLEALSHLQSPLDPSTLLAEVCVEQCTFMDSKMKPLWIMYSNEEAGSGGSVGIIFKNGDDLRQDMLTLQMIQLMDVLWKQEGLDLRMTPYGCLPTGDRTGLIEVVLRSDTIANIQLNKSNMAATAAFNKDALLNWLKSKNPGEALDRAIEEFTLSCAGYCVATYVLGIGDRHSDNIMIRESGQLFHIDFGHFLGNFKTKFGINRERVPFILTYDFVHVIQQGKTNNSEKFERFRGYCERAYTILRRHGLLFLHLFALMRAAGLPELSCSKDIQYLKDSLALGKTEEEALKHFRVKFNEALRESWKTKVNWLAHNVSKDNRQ
T4 sequence (P27986 whole entry partner): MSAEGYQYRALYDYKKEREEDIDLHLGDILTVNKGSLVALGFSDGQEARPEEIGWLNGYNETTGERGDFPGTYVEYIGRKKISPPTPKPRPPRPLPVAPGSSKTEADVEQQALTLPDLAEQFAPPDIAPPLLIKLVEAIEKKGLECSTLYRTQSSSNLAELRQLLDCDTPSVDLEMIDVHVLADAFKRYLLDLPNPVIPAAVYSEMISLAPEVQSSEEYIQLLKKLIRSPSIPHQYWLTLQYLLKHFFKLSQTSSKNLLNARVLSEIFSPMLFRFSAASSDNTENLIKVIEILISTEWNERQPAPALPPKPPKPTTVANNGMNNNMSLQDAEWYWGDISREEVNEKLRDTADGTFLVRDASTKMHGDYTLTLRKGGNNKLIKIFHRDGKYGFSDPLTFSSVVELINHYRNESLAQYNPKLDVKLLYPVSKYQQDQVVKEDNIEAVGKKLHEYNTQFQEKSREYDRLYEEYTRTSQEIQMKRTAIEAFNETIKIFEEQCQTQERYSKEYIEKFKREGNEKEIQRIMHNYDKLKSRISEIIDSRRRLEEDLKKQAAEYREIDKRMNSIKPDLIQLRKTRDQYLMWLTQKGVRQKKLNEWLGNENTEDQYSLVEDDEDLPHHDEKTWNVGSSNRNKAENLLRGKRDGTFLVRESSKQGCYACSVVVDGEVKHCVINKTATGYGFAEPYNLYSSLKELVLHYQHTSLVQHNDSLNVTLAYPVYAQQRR
T1 sequence (P48736 whole entry): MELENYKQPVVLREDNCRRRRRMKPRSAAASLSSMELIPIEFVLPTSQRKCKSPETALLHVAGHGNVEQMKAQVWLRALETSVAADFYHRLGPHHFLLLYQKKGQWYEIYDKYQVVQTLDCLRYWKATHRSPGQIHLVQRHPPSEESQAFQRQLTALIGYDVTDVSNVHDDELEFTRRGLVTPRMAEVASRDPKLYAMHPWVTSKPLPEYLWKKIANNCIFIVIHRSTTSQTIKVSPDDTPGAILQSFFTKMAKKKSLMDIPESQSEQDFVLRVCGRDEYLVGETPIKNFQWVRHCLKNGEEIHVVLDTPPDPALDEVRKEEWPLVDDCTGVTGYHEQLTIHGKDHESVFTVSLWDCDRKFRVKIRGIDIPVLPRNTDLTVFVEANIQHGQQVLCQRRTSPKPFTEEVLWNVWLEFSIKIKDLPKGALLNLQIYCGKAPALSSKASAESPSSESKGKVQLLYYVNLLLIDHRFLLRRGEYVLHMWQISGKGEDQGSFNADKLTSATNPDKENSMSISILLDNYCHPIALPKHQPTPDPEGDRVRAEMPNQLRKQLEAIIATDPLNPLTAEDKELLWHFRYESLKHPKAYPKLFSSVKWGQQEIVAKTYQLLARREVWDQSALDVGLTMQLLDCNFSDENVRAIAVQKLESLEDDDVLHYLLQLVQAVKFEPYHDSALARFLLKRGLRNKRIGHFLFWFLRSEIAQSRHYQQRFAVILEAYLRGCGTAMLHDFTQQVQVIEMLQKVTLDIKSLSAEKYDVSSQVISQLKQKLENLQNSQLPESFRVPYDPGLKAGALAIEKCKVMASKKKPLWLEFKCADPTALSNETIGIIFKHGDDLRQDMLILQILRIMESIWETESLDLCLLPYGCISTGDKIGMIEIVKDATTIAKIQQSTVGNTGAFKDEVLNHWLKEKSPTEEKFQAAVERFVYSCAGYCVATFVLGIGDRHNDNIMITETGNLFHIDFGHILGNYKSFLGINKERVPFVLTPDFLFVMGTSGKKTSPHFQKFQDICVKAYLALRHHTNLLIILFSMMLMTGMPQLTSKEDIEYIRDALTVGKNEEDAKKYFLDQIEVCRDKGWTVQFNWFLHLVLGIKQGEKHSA
T3 sequence (P42338 whole entry): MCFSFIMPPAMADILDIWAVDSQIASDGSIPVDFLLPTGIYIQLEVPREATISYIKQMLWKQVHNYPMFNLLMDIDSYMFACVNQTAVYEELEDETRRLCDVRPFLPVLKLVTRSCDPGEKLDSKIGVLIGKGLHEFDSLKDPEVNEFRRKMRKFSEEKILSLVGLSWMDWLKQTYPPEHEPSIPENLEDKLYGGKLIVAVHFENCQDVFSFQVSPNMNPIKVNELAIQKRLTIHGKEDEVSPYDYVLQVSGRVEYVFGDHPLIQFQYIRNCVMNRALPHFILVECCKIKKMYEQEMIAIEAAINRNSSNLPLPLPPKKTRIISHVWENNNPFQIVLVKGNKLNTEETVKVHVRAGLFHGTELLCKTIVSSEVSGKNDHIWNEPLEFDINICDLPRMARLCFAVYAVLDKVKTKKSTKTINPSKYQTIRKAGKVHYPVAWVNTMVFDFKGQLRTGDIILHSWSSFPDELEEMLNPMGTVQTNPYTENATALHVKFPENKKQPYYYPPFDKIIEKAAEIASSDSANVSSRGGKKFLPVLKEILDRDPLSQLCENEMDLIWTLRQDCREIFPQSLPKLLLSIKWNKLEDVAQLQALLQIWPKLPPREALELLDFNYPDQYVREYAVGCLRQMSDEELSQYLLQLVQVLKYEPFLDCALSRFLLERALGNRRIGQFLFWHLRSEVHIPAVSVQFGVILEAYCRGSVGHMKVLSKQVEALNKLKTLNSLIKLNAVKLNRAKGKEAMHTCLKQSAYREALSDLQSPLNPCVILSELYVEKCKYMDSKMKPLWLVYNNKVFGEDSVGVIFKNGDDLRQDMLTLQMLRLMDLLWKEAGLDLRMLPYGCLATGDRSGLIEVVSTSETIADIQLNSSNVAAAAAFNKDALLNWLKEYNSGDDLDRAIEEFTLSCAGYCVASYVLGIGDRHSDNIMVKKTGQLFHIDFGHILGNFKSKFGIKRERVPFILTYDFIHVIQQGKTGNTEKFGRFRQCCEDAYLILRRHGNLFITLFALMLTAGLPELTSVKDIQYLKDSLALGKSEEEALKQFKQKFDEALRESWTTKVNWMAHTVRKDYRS
T3 sequence (P27986 whole entry partner): as the sequence (P27986 whole entry partner) above
T2 sequence (P42336 whole entry): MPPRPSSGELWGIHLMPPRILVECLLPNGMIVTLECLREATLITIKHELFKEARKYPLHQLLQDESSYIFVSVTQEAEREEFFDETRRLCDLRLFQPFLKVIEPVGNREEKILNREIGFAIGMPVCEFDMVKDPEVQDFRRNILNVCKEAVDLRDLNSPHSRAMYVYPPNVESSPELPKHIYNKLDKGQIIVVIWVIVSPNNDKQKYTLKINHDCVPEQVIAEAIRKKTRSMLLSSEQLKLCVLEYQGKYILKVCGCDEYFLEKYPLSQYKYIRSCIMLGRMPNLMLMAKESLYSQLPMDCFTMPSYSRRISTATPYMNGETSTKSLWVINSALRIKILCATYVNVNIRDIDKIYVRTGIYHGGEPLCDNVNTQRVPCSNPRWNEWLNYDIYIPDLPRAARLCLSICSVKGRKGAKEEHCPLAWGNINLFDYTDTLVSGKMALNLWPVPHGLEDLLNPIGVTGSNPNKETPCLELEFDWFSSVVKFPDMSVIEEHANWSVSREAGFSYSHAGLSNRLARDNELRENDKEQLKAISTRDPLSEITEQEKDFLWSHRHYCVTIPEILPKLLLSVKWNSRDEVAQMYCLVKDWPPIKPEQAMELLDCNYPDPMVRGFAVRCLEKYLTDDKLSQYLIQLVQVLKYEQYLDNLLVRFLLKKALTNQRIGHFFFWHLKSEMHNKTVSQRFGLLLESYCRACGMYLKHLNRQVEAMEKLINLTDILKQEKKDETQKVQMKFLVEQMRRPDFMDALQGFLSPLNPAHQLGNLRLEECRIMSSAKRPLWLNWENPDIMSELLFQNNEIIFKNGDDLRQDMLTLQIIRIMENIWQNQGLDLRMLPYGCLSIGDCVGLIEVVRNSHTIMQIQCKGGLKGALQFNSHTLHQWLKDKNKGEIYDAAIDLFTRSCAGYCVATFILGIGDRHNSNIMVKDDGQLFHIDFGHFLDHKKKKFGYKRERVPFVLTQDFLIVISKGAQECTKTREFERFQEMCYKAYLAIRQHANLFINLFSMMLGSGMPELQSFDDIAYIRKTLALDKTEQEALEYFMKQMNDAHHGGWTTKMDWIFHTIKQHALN
T2 sequence (P27986 whole entry partner): as the sequence (P27986 whole entry partner) above

Row | Compound | inhibition at 1 µM (Human PI3K gamma) [%] | inhibition at 1.1 µM (Human PI3K alpha) [%] | inhibition at 1.1 µM (Human PI3K beta) [%] | inhibition at 1 µM (Human PI3K delta) [%] | p110 gamma Percent Inhibition (Human PI3K gamma) [%] | p110 alpha Percent Inhibition (Human PI3K alpha) [%] | p110 beta Percent Inhibition (Human PI3K beta) [%] | p110 delta Percent Inhibition (Human PI3K delta) [%]
1 | COC(=O)Nc1cc(-c2sc(-c3nnc[nH]3)c(Cc3ccc4ccccc4c3)c2C#N)ccn1 [Compound 179] | 5 | 29 | 60 | 89 | – | – | – | –
2 | COC(=O)Nc1cc(-c2sc(C(=O)O)c(Cc3ccc4ccccc4c3)c2C#N)ccn1 [Compound 180] | 21 | 60 | 102 | 102 | – | – | – | –
3 | CC(=O)Nc1cc(-c2cc(C(c3ccc(Cl)cc3)N3CC(N(C)C)C3)c(-c3nnc[nH]3)s2)ccn1 (stereo not shown) [Compound 181, N-{4-[4-{(4-chlorophenyl)[3-(dimethylamino)azetidin-1-yl]-methyl}-5-(4H-1,2,4-triazol-3-yl)-2-thienyl]pyridin-2-yl}acetamide] | – | – | – | – | 35 | 85 | 91 | 108
4 | CC(=O)Nc1cc(-c2cc(C(OCC3CNC3)c3ccc(Cl)cc3)c(-c3nnc[nH]3)s2)ccn1 (stereo not shown) [Compound 182] | 45 | 83 | 100 | 107 | – | – | – | –
5 | Cc1n[nH]c(C)c1-c1sc(-c2ccncc2)nc1Cc1ccc(Cl)cc1 [Compound 183] | 3 | -2 | 16 | 9 | – | – | – | –
6 | CC(=O)Nc1cc(-c2cc(C(NCCN(C)C)c3ccc(Cl)cc3)c(-c3nnc[nH]3)s2)ccn1 (stereo not shown) [Compound 184] | 16 | 76 | 112 | 112 | – | – | – | –
7 | CN(C)C(c1ccc(Cl)cc1)c1cc(-c2ccnc(N)c2)sc1-c1nnc[nH]1 (stereo not shown) [Compound 185] | 9 | 16 | 97 | 50 | – | – | – | –
8 | COc1cc(C(O)c2cc(-c3ccncc3)sc2-c2ncn[nH]2)c(F)cc1Cl (stereo not shown) [Compound 186] | 65 | 68 | 109 | 92 | – | – | – | –
9 | OC(c1ccc(F)cc1Cl)c1cc(-c2ccncc2)sc1-c1nnc[nH]1 (stereo not shown) [Compound 187] | 25 | 32 | 95 | 77 | – | – | – | –
10 | Cc1ccc(F)c(C(O)c2cc(-c3ccncc3)sc2-c2nnc[nH]2)c1 (stereo not shown) [Compound 188] | 36 | 47 | 94 | 82 | – | – | – | –
11 | Clc1ccc(Cc2nc(-c3ccncc3)sc2-c2nnn[nH]2)cc1 [Compound 190, 4-(4-chlorobenzyl)-2-(pyridin-4-yl)-5-(1H-tetrazol-5-yl)thiazole] | 7 | 3 | 60 | 33 | – | – | – | –
12 | COc1ccc(C(O)c2cc(-c3ccncc3)sc2-c2nnc[nH]2)cc1Cl (stereo not shown) [Compound 191] | 30 | 26 | 97 | 90 | – | – | – | –
13 | OC(c1ccccc1C(F)(F)F)c1cc(-c2ccncc2)sc1-c1nnc[nH]1 (stereo not shown) [Compound 193] | 13 | 26 | 69 | 46 | – | – | – | –
14 | COC(=O)Nc1cc(-c2sc(-c3nnc[nH]3)c(C(O)c3ccc(Cl)cc3)c2C#N)ccn1 (stereo not shown) [Compound 195, Methyl {4-[4-[(4-chlorophenyl)(hydroxy)methyl]-3-cyano-5-(4H-1,2,4-triazol-3-yl)-2-thienyl]pyridin-2-yl}carbamate] | 8 | 52 | 74 | 88 | – | – | – | –
15 | CC(=O)Nc1cc(-c2cc(C(c3ccc(Cl)cc3)N3CCN(C(C)=O)CC3)c(-c3nnc[nH]3)s2)ccn1 (stereo not shown) [Compound 196] | 12 | 69 | 91 | 105 | – | – | – | –
16 | COc1cnc(Cl)cc1-c1cc(C(O)c2ccc(Cl)cc2)c(-c2nnc[nH]2)s1 (stereo not shown) [Compound 197] | 4 | 15 | 23 | 19 | – | – | – | –
17 | N#Cc1c(-c2ccnnc2)sc(-c2nnc[nH]2)c1C(O)c1ccc2ccccc2c1 (stereo not shown) [Compound 198] | 35 | 18 | 108 | 70 | – | – | – | –
18 | OC(c1ccc(F)c(F)c1)c1cc(-c2ccncc2)sc1-c1nnc[nH]1 (stereo not shown) [Compound 199] | 16 | 21 | 64 | 42 | – | – | – | –
19 | CC(=O)Nc1cc(-c2cc(C(c3ccc(Cl)cc3)N3CC(N)C3)c(-c3nnc[nH]3)s2)ccn1 (stereo not shown) [Compound 200] | 60 | 101 | 118 | 111 | – | – | – | –

Further lines, results first:

Row | inhibition at 1 µM (Human PI3K gamma) [%] | inhibition at 1.1 µM (Human PI3K alpha) [%] | inhibition at 1.1 µM (Human PI3K beta) [%] | inhibition at 1 µM (Human PI3K delta) [%] | p110 gamma Percent Inhibition (Human PI3K gamma) [%] | p110 alpha Percent Inhibition (Human PI3K alpha) [%] | p110 beta Percent Inhibition (Human PI3K beta) [%] | p110 delta Percent Inhibition (Human PI3K delta) [%] | Compound
20 | 37 | 74 | 105 | 110 | – | – | – | – | CC(=O)Nc1cc(-c2cc(C(c3ccc(Cl)cc3)N3CC(O)C3)c(-c3nnc[nH]3)s2)ccn1 (stereo not shown) [Compound 201]
21 | 8 | 12 | 80 | 54 | – | – | – | – | COc1ccc(C(O)c2cc(-c3ccncc3)sc2-c2nnc[nH]2)cc1C (stereo not shown) [Compound 202]
22 | – | – | – | – | 16 | 10 | 88 | 67 | OC(c1cc(-c2ccncc2)sc1-c1nnc[nH]1)c1c(F)ccc2ccccc12 (stereo not shown) [Compound 203]
23 | 64 | 42 | 114 | 83 | – | – | – | – | O=C(O)c1sc(-c2ccncc2)cc1C(O)c1ccc2ccccc2c1 (stereo not shown) [Compound 205, 3-[hydroxy(2-naphthyl)methyl]-5-pyridin-4-ylthiophene-2-carboxylic acid]
24 | 11 | 90 | 96 | 106 | – | – | – | – | CC(=O)Nc1cc(-c2cc(C(c3ccc(Cl)cc3)n3cccn3)c(-c3nnc[nH]3)s2)ccn1 (stereo not shown) [Compound 206]
25 | 9 | 27 | 83 | 51 | – | – | – | – | OC(c1ccc(-c2ccncc2)cc1)c1cc(-c2ccncc2)sc1-c1nnc[nH]1 (stereo not shown) [Compound 207]
26 | – | – | – | – | 47 | 42 | 108 | 107 | OC(c1ccc2ccccc2c1)c1cc(-c2ccncc2)sc1-c1nnc[nH]1 (stereo not shown) [Compound 208]
27 | 34 | 92 | 107 | 108 | – | – | – | – | CN[C@@H]1CCN(C(c2ccc(Cl)cc2)c2cc(-c3ccnc(NC(C)=O)c3)sc2-c2nnc[nH]2)C1 (stereo partly shown) [Compound 209]
28 | 68 | 52 | 110 | 92 | – | – | – | – | O=C(O)c1sc(-c2ccncc2)cc1Cc1ccc2ccccc2c1 [Compound 210, 3-(2-naphthylmethyl)-5-pyridin-4-ylthiophene-2-carboxylic acid]
29 | 13 | 111 | 111 | 106 | – | – | – | – | CC(=O)Nc1cc(-c2cc(C(N=[N+]=[N-])c3ccc(Cl)cc3)c(-c3nnc[nH]3)s2)ccn1 (stereo not shown) [Compound 211]
30 | 38 | 87 | 109 | 112 | – | – | – | – | CC(=O)Nc1cc(-c2cc(C(c3ccc(Cl)cc3)N3CC[C@@H](O)C3)c(-c3nnc[nH]3)s2)ccn1 (stereo partly shown) [Compound 212]
31 | 35 | 57 | 80 | 109 | – | – | – | – | CC(=O)Nc1cc(-c2nc(Cc3ccc4ccccc4c3)c(-c3nnc[nH]3)s2)ccn1 [Compound 213]
32 | 14 | 46 | 84 | 46 | – | – | – | – | OC(c1ccc(-c2cccnc2)cc1)c1cc(-c2ccncc2)sc1-c1nnc[nH]1 (stereo not shown) [Compound 214]
33 | 8 | 29 | 85 | 51 | – | – | – | – | OC(c1ccc2c(c1)OCCO2)c1cc(-c2ccncc2)sc1-c1nnc[nH]1 (stereo not shown) [Compound 215]
34 | 11 | 64 | 91 | 99 | – | – | – | – | CC(=O)Nc1cc(-c2cc(C(c3ccc(Cl)cc3)N3CC(F)(F)C3)c(-c3nnc[nH]3)s2)ccn1 (stereo not shown) [Compound 216]
35 | 24 | 30 | 74 | 60 | – | – | – | – | OC(c1ccccc1Cl)c1cc(-c2ccncc2)sc1-c1nnc[nH]1 (stereo not shown) [Compound 217]
36 | 14 | 61 | 102 | 97 | – | – | – | – | CC(=O)Nc1cc(-c2sc(-c3nnc[nH]3)c(C(c3ccc(Cl)cc3)N3CCNCC3)c2C#N)ccn1 (stereo not shown) [Compound 218]
37 | 31 | 32 | 101 | 107 | – | – | – | – | OC(c1ccc(Cl)cc1Cl)c1cc(-c2ccncc2)sc1-c1nnc[nH]1 (stereo not shown) [Compound 219]
